In PubChem BioAssay AID248 (DTP/NCI, 2004):
“And” between values parts separate entries of the source, which are not always exact repeats. Equal entries are not always repeated. Toxic doses and inconclusive results are not listed. No stated cut-off is given here; in the data, active means T/C of 150% or more; inactive means T/C below 125%.

Tested on: L1210 leukemia ip in BDF1 mice, survival T/C
Experiment: NCI In Vivo Anticancer Drug Screen. Data for tumor model L1210 Leukemia (intraperitoneal) in B6D2F1 (BDF1) mice
Details: endpoint: mean survival time, higher = longer survival
Method in brief: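 Mice bearing the transplanted tumor received compound or vehicle. Survival of the treated group was divided by that of the vehicle-treated control group to give the ratio.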

[1] = dose: 12.5 mg/kg/injection, schedule: Q04DX003 (ip), vehicle: saline
[2] = dose: 25.0 mg/kg/injection, schedule: Q04DX003 (ip), vehicle: saline
[3] = dose: 50.0 mg/kg/injection, schedule: Q01DX001 (ip), vehicle: saline
[4] = dose: 100.0 mg/kg/injection, schedule: Q01DX009 (ip), vehicle: saline with Tween-80
[5] = dose: 200.0 mg/kg/injection, schedule: Q01DX009 (ip), vehicle: saline with Tween-80
[6] = dose: 400.0 mg/kg/injection, schedule: Q01DX009 (ip), vehicle: saline with Tween-80
[7] = dose: 50.0 mg/kg/injection, schedule: Q04DX002 (ip), vehicle: Klucel (hydroxypropylcellulose) (HPC)
[8] = dose: 100.0 mg/kg/injection, schedule: Q04DX002 (ip), vehicle: Klucel (hydroxypropylcellulose) (HPC)
[9] = dose: 100.0 mg/kg/injection, schedule: Q01DX001 (ip), vehicle: carboxymethylcellulose (CMC)
[10] = dose: 200.0 mg/kg/injection, schedule: Q01DX001 (ip), vehicle: carboxymethylcellulose (CMC)
[11] = dose: 400.0 mg/kg/injection, schedule: Q01DX001 (ip), vehicle: carboxymethylcellulose (CMC)
[12] = dose: 200.0 mg/kg/injection, schedule: Q04DX002 (ip), vehicle: Klucel (hydroxypropylcellulose) (HPC)
[13] = dose: 25.0 mg/kg/injection, schedule: Q01DX009 (ip), vehicle: Klucel (hydroxypropylcellulose) (HPC)
[14] = dose: 50.0 mg/kg/injection, schedule: Q01DX009 (ip), vehicle: Klucel (hydroxypropylcellulose) (HPC)
[15] = dose: 100.0 mg/kg/injection, schedule: Q04DX003 (ip), vehicle: Klucel (hydroxypropylcellulose) (HPC)
[16] = dose: 200.0 mg/kg/injection, schedule: Q04DX003 (ip), vehicle: Klucel (hydroxypropylcellulose) (HPC)
[17] = dose: 200.0 mg/kg/injection, schedule: Q01DX009 (ip), vehicle: Klucel (hydroxypropylcellulose) (HPC)
[18] = dose: 400.0 mg/kg/injection, schedule: Q01DX009 (ip), vehicle: Klucel (hydroxypropylcellulose) (HPC)

Measured: T/C

O=S(=O)(C=C(N1CCCCC1)N1CCCCC1)Cc1ccccc1
inactive: dose: 6.25 mg/kg/injection, schedule: Q01DX009 (ip), vehicle: saline 113 % of control | dose: 12.5 mg/kg/injection, schedule: Q01DX001 (ip), vehicle: saline 100 % of control | dose: 12.5 mg/kg/injection, schedule: Q01DX009 (ip), vehicle: saline 106 % of control | [1] 94 % of control | dose: 25.0 mg/kg/injection, schedule: Q01DX001 (ip), vehicle: saline 100 % of control | dose: 25.0 mg/kg/injection, schedule: Q01DX009 (ip), vehicle: saline 103 % of control | [2] 98 % of control | dose: 35.0 mg/kg/injection, schedule: Q01DX009 (ip), vehicle: acetone 101 % of control | [3] 106 % of control

CCCCCCCCCCCCCCCCC
inactive: dose: 100.0 mg/kg/injection, schedule: Q01DX001 (ip), vehicle: saline with Tween-80 113 % of control | dose: 200.0 mg/kg/injection, schedule: Q01DX001 (ip), vehicle: saline with Tween-80 108 % of control | dose: 400.0 mg/kg/injection, schedule: Q01DX001 (ip), vehicle: saline with Tween-80 97 % of control

Oc1c(Cl)cc(Cl)c(Cl)c1Cc1c(O)c(Cl)cc(Cl)c1Cl
inactive: dose: 12.5 mg/kg/injection, schedule: Q04DX003 (ip), vehicle: Klucel (hydroxypropylcellulose) (HPC) 109 % of control | dose: 25.0 mg/kg/injection, schedule: Q04DX003 (ip), vehicle: Klucel (hydroxypropylcellulose) (HPC) 100 % of control | dose: 50.0 mg/kg/injection, schedule: Q04DX003 (ip), vehicle: Klucel (hydroxypropylcellulose) (HPC) 98 % of control

Cc1cc(=O)cc(C)o1
inactive: [4] 108 % of control | [5] 100 % of control | [6] 102 % of control

NC(CS)=NC1CCCC1
inactive: [1] 108 % of control | [2] 115 % of control | dose: 50.0 mg/kg/injection, schedule: Q04DX003 (ip), vehicle: saline 112 % of control

Cc1ccc(S(=O)(=O)OCCN(CCO)c2cn(C(c3ccccc3)(c3ccccc3)c3ccccc3)c(=O)n(C(c3ccccc3)(c3ccccc3)c3ccccc3)c2=O)cc1
inactive: [3] 93 % of control | dose: 100.0 mg/kg/injection, schedule: Q01DX001 (ip), vehicle: saline 93 % of control | dose: 200.0 mg/kg/injection, schedule: Q01DX001 (ip), vehicle: saline 93 % of control

N#CCSc1nc(N)nc2nc[nH]c12
inactive: dose: 62.5 mg/kg/injection, schedule: Q01DX Z (ip), vehicle: methylcellulose (MC) 101 % of control | dose: 125.0 mg/kg/injection, schedule: Q01DX Z (ip), vehicle: methylcellulose (MC) 105 % of control

CCN(CC)CCOCCOC(=O)C(CC)(CC)c1cccc2ccccc12
inactive: dose: 25.0 mg/kg/injection, schedule: Q04DX002 (ip), vehicle: Klucel (hydroxypropylcellulose) (HPC) 93 % of control | [7] 97 % of control | [8] 93 % of control

c1ccc(-c2ccccc2SSc2ccccc2-c2ccccc2)cc1
inactive: [9] 96 % of control | [10] 105 % of control | [11] 91 % of control

N#Cc1cc(C(N)=O)c(N)nc1SCc1ccccc1
inactive: dose: 50.0 mg/kg/injection, schedule: Q01DX001 (ip), vehicle: Klucel (hydroxypropylcellulose) (HPC) 94 % of control | dose: 100.0 mg/kg/injection, schedule: Q01DX001 (ip), vehicle: Klucel (hydroxypropylcellulose) (HPC) 86 % of control | dose: 200.0 mg/kg/injection, schedule: Q01DX001 (ip), vehicle: Klucel (hydroxypropylcellulose) (HPC) 91 % of control

CCOC(=O)C1(C(=O)OCC)CC(C)C(=O)N1c1ccccc1OC (configuration not stated)
inactive: [8] 100 % of control | [12] 89 % of control | dose: 400.0 mg/kg/injection, schedule: Q04DX002 (ip), vehicle: Klucel (hydroxypropylcellulose) (HPC) 100 % of control

[N-]=[N+]=Nc1ccc(S(=O)(=O)Nc2ncccn2)cc1
inactive: [9] 113 % of control | dose: 100.0 mg/kg/injection, schedule: Q01DX009 (ip), vehicle: carboxymethylcellulose (CMC) 93 % of control | dose: 100.0 mg/kg/injection, schedule: Q04DX002 (ip), vehicle: carboxymethylcellulose (CMC) 100 % of control and 108 % of control | dose: 100.0 mg/kg/injection, schedule: Q04DX003 (ip), vehicle: carboxymethylcellulose (CMC) 104 % of control | [10] 108 % of control | dose: 200.0 mg/kg/injection, schedule: Q01DX009 (ip), vehicle: carboxymethylcellulose (CMC) 88 % of control | dose: 200.0 mg/kg/injection, schedule: Q04DX002 (ip), vehicle: carboxymethylcellulose (CMC) 102 % of control and 103 % of control | dose: 200.0 mg/kg/injection, schedule: Q04DX003 (ip), vehicle: carboxymethylcellulose (CMC) 96 % of control | [11] 90 % of control | dose: 400.0 mg/kg/injection, schedule: Q01DX009 (ip), vehicle: carboxymethylcellulose (CMC) 98 % of control | dose: 400.0 mg/kg/injection, schedule: Q04DX002 (ip), vehicle: carboxymethylcellulose (CMC) 103 % of control and 107 % of control | dose: 400.0 mg/kg/injection, schedule: Q04DX003 (ip), vehicle: carboxymethylcellulose (CMC) 110 % of control

Cc1ccc(NC(=O)Oc2cccnc2)cc1
inactive: dose: 12.5 mg/kg/injection, schedule: Q01DX009 (ip), vehicle: Klucel (hydroxypropylcellulose) (HPC) 107 % of control | [13] 107 % of control | [14] 96 % of control

Oc1ccccc1/C=N\N=C\c1ccccc1O
inactive: [7] 93 % of control | dose: 100.0 mg/kg/injection, schedule: Q01DX001 (ip), vehicle: other 97 % of control | [8] 101 % of control | dose: 200.0 mg/kg/injection, schedule: Q01DX001 (ip), vehicle: other 103 % of control | [12] 112 % of control | dose: 400.0 mg/kg/injection, schedule: Q01DX001 (ip), vehicle: other 94 % of control

O=C(C[n+]1ccccc1/C=N/Nc1ccccc1)c1ccccc1
inactive: dose: 75.0 mg/kg/injection, schedule: Q01DX001 (ip), vehicle: saline 95 % of control | dose: 150.0 mg/kg/injection, schedule: Q01DX001 (ip), vehicle: saline 95 % of control | dose: 300.0 mg/kg/injection, schedule: Q01DX001 (ip), vehicle: saline 97 % of control

N#Cc1c2c(c(O)[nH]c1=O)CCCC2
inactive: dose: 100.0 mg/kg/injection, schedule: Q01DX009 (ip), vehicle: saline 97 % of control | [15] 94 % of control | dose: 200.0 mg/kg/injection, schedule: Q01DX009 (ip), vehicle: saline 97 % of control | [16] 102 % of control | dose: 400.0 mg/kg/injection, schedule: Q01DX009 (ip), vehicle: saline 101 % of control | dose: 400.0 mg/kg/injection, schedule: Q04DX003 (ip), vehicle: Klucel (hydroxypropylcellulose) (HPC) 96 % of control

CC(C)=CCC/C(C)=C/COC(=O)Cc1ccccc1
inactive: [4] 103 % of control | dose: 100.0 mg/kg/injection, schedule: Q04DX003 (ip), vehicle: saline with Tween-80 97 % of control | [5] 110 % of control | dose: 200.0 mg/kg/injection, schedule: Q04DX003 (ip), vehicle: saline with Tween-80 98 % of control | [6] 103 % of control | dose: 400.0 mg/kg/injection, schedule: Q04DX003 (ip), vehicle: saline with Tween-80 103 % of control

Cc1ccc(NC(=O)c2cc([N+](=O)[O-])cc([N+](=O)[O-])c2)cc1Cl
inactive: dose: 100.0 mg/kg/injection, schedule: Q01DX009 (ip), vehicle: Klucel (hydroxypropylcellulose) (HPC) 96 % of control | [17] 100 % of control | [18] 88 % of control

CN(C)N=Nc1cn[nH]c1C(N)=O
inactive: [13] 117 % of control | [14] 112 % of control and 117 % of control and 118 % of control | [15] 96 % of control and 121 % of control | dose: 100.0 mg/kg/injection, schedule: Q04DX003 (ip), vehicle: saline 111 % of control | dose: 178.0 mg/kg/injection, schedule: Q01DX009 (ip), vehicle: saline 87 % of control | [17] 105 % of control and 113 % of control | [16] 98 % of control | dose: 200.0 mg/kg/injection, schedule: Q04DX003 (ip), vehicle: saline 119 % of control | dose: 267.0 mg/kg/injection, schedule: Q01DX009 (ip), vehicle: saline 91 % of control | [18] 103 % of control
